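1) Cells in 96-well plates. 2) Compound, 48 h, 5 concentrations. 3) Linear interpolation between surrounding doses. 4) Unreached endpoint = highest concentration. GI50: concentration for 50% inhibition of growth.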 Active and inactive are the calls of the source. Cut-off read from the data, not from the text of the source: active = GI50 up to about 1.1 µM and inactive = higher.
How the values were obtained:
Test in all cases: growth of human tumour cells (NCI), 48 h
HCT-15 = system: HCT-15
SF-539 = system: SF-539
OVCAR-3 = system: OVCAR-3
NCI-H522 = system: NCI-H522
LOX IMVI = system: LOX IMVI
M14 = system: M14
OVCAR-4 = system: OVCAR-4
NCI/ADR-RES = system: NCI/ADR-RES
SK-MEL-5 = system: SK-MEL-5
ACHN = system: ACHN
OVCAR-5 = system: OVCAR-5
U-251 = system: U-251
UACC-257 = system: UACC-257
UO-31 = system: UO-31
KM12 = system: KM12
DU-145 = system: DU-145
HL-60 = system: HL-60
SNB-75 = system: SNB-75

SMILES	GI50 (HCT-15) [µM]	GI50 (SF-539)	GI50 (OVCAR-3)	GI50 (NCI-H522)	GI50 (LOX IMVI)	GI50 (M14)	GI50 (OVCAR-4)	GI50 (NCI/ADR-RES)	GI50 (SK-MEL-5)	GI50 (ACHN)	GI50 (OVCAR-5)	GI50 (U-251)	GI50 (UACC-257)	GI50 (UO-31)	GI50 (KM12)	GI50 (DU-145)	GI50 (HL-60)	GI50 (SNB-75)
CC1=CC(O)(c2ccccc2)C(N2CCOCC2)N1O (centres undefined)	> 100	> 100 µM (inactive)	> 100 µM (inactive)	> 100 µM (inactive)	> 100 µM (inactive)	> 100 µM (inactive)	> 100 µM (inactive)	> 100 µM (inactive)	> 100 µM (inactive)	> 100 µM (inactive)	> 100 µM (inactive)	> 100 µM (inactive)	> 100 µM (inactive)	> 100 µM (inactive)	> 100 µM (inactive)	–	–	–
COC1(OC)c2no[n+]([O-])c2CCC1O (centres undefined)	> 100	> 100 µM (inactive)	> 100 µM (inactive)	> 100 µM (inactive)	> 100 µM (inactive)	> 100 µM (inactive)	> 100 µM (inactive)	> 100 µM (inactive)	> 100 µM (inactive)	> 100 µM (inactive)	> 100 µM (inactive)	–	> 100 µM (inactive)	> 100 µM (inactive)	> 100 µM (inactive)	> 100 µM (inactive)	–	–
N#Cc1c(NCCc2ccc(F)cc2)c2ccccc2n2c1nc1ccccc12	28.4	9.27 µM (inactive)	13.9 µM (inactive)	–	14.1 µM (inactive)	42 µM (inactive)	2.45 µM (inactive)	12.3 µM (inactive)	–	9.18 µM (inactive)	41.6 µM (inactive)	11.3 µM (inactive)	40.4 µM (inactive)	13.7 µM (inactive)	23.2 µM (inactive)	19.6 µM (inactive)	> 100 µM (inactive)	6.32 µM (inactive)
CCCCNc1nc(C#N)c(N)s1	> 100	> 100 µM (inactive)	> 100 µM (inactive)	> 100 µM (inactive)	> 100 µM (inactive)	> 100 µM (inactive)	> 100 µM (inactive)	–	–	> 100 µM (inactive)	> 100 µM (inactive)	> 100 µM (inactive)	> 100 µM (inactive)	> 100 µM (inactive)	> 100 µM (inactive)	–	> 100 µM (inactive)	> 100 µM (inactive)
O=C1c2ccccc2C(=O)c2sc(Nc3ccccc3C(F)(F)F)nc21	7.29	19.9 µM (inactive)	7.33 µM (inactive)	8.15 µM (inactive)	25.1 µM (inactive)	21.7 µM (inactive)	–	–	8.05 µM (inactive)	16.6 µM (inactive)	22.4 µM (inactive)	10.6 µM (inactive)	15.6 µM (inactive)	12.1 µM (inactive)	10.2 µM (inactive)	16.9 µM (inactive)	3.74 µM (inactive)	15.1 µM (inactive)
CCOC(=O)c1cc(C2CCN(Cc3ccccc3)C2=O)c(C(=O)C(=[N+]=[N-])C(C)=O)[nH]1 (centres undefined)	> 100	> 100 µM (inactive)	> 100 µM (inactive)	–	> 100 µM (inactive)	> 100 µM (inactive)	> 100 µM (inactive)	> 100 µM (inactive)	> 100 µM (inactive)	–	> 100 µM (inactive)	> 100 µM (inactive)	> 100 µM (inactive)	> 100 µM (inactive)	> 100 µM (inactive)	> 100 µM (inactive)	> 100 µM (inactive)	> 100 µM (inactive)
Cc1cc2c(cc1-c1cc3c(cc1C)C(C(C)C)=C(O)C(=O)/C3=C\Nc1nc(-c3ccccc3)cs1)/C(=C/Nc1nc(-c3ccccc3)cs1)C(=O)C(O)=C2C(C)C	25.4	18.2 µM (inactive)	15.3 µM (inactive)	–	–	12.9 µM (inactive)	30.8 µM (inactive)	26.1 µM (inactive)	16.7 µM (inactive)	14.9 µM (inactive)	> 10 µM (inactive)	14.4 µM (inactive)	21.8 µM (inactive)	> 10 µM (inactive)	32.1 µM (inactive)	23.7 µM (inactive)	25.7 µM (inactive)	35.4 µM (inactive)
CC1(C)OC2OC(C(COS(=O)(=O)C(F)(F)F)N=[N+]=[N-])C(OC(=O)c3ccccc3)C2O1 (centres undefined)	> 100	> 100 µM (inactive)	> 100 µM (inactive)	–	> 100 µM (inactive)	> 100 µM (inactive)	> 100 µM (inactive)	> 100 µM (inactive)	> 100 µM (inactive)	> 100 µM (inactive)	> 100 µM (inactive)	> 100 µM (inactive)	> 100 µM (inactive)	> 100 µM (inactive)	> 100 µM (inactive)	> 100 µM (inactive)	> 100 µM (inactive)	53.1 µM (inactive)
CCCCCCCC(CC(=O)NC(CO)C(=O)NC(CO)CC(C)C)OC(=O)CC(CCCCCCC)OC(=O)CC(CCCCCCC)OC1OC(C)C(O)C(OC2OC(C)C(OC(C)=O)C(O)C2O)C1O (centres undefined)	–	11 µM (inactive)	11.8 µM (inactive)	11.7 µM (inactive)	–	3.67 µM (inactive)	5.01 µM (inactive)	–	10 µM (inactive)	15.7 µM (inactive)	10.1 µM (inactive)	4.41 µM (inactive)	2.22 µM (inactive)	15.4 µM (inactive)	3.55 µM (inactive)	11.8 µM (inactive)	2.92 µM (inactive)	4.59 µM (inactive)
COc1cccc(C2c3cc4c(cc3OC(NNS(=O)(=O)c3ccc(C)cc3)C2C)OCO4)c1O (centres undefined)	23.5	21.6 µM (inactive)	18.9 µM (inactive)	11.4 µM (inactive)	26.1 µM (inactive)	24.7 µM (inactive)	–	–	20.4 µM (inactive)	23.6 µM (inactive)	52.4 µM (inactive)	22.3 µM (inactive)	19.7 µM (inactive)	18.5 µM (inactive)	20.3 µM (inactive)	30.5 µM (inactive)	18 µM (inactive)	11.2 µM (inactive)
COc1ccc2nc3c4c(nccc4c2c1)-c1ncccc1C3=O	0.005	0.0769 µM (active)	0.005 µM (active)	–	0.00982 µM (active)	0.0118 µM (active)	0.439 µM (active)	0.201 µM (active)	0.0282 µM (active)	0.0116 µM (active)	0.971 µM (active)	0.0319 µM (active)	0.0834 µM (active)	0.135 µM (active)	0.0748 µM (active)	0.00927 µM (active)	0.0217 µM (active)	0.0787 µM (active)
COc1cc(OC)c(C2c3cc4c(cc3OC(N3CCCC3)C2C)OCO4)c(OC)c1 (centres undefined)	6.11	12.1 µM (inactive)	4.26 µM (inactive)	15.3 µM (inactive)	11.9 µM (inactive)	12.2 µM (inactive)	–	15.2 µM (inactive)	13.8 µM (inactive)	5.11 µM (inactive)	18.5 µM (inactive)	–	19.2 µM (inactive)	7.67 µM (inactive)	10.6 µM (inactive)	13 µM (inactive)	–	–
N/C(S)=N/N=C/c1cc(CN2CCOCC2)c(N)cn1	15	27.5 µM (inactive)	27.7 µM (inactive)	–	29.9 µM (inactive)	18.7 µM (inactive)	–	31 µM (inactive)	35.2 µM (inactive)	14.1 µM (inactive)	60.3 µM (inactive)	56.8 µM (inactive)	28.6 µM (inactive)	28.2 µM (inactive)	23.6 µM (inactive)	28.6 µM (inactive)	48.2 µM (inactive)	25 µM (inactive)
O=C1/C(=C/c2cccc([N+](=O)[O-])c2)N=C(c2ccccc2)N1c1nc2c(Cl)cc(Cl)cc2s1	29.3	22.8 µM (inactive)	17.1 µM (inactive)	–	16.4 µM (inactive)	21.8 µM (inactive)	24 µM (inactive)	28.4 µM (inactive)	16.9 µM (inactive)	27.7 µM (inactive)	26.7 µM (inactive)	17.8 µM (inactive)	30.1 µM (inactive)	21.8 µM (inactive)	19.9 µM (inactive)	27 µM (inactive)	21.7 µM (inactive)	–
O=C(O)c1cccc2c1/C(=N/Nc1ccccc1)CC2	> 100	> 100 µM (inactive)	> 100 µM (inactive)	> 100 µM (inactive)	> 100 µM (inactive)	16.6 µM (inactive)	> 100 µM (inactive)	> 100 µM (inactive)	> 100 µM (inactive)	> 100 µM (inactive)	> 100 µM (inactive)	> 100 µM (inactive)	65.9 µM (inactive)	> 100 µM (inactive)	> 100 µM (inactive)	> 100 µM (inactive)	–	–
c1ccc2c(c1)c1c(n2CCOCCN2CCOCC2)CCCC1	36.5	86.1 µM (inactive)	26.9 µM (inactive)	–	20.2 µM (inactive)	12.4 µM (inactive)	14.3 µM (inactive)	16.3 µM (inactive)	18.2 µM (inactive)	30.8 µM (inactive)	25.1 µM (inactive)	23.6 µM (inactive)	21.1 µM (inactive)	27.1 µM (inactive)	31.8 µM (inactive)	> 100 µM (inactive)	20 µM (inactive)	2.36 µM (inactive)
COc1ccc(/C=N/NS(=O)(=O)c2ccc(/C=C3\NC(=O)N(C)C3=O)cc2)cc1	> 100	–	40.6 µM (inactive)	–	> 100 µM (inactive)	> 100 µM (inactive)	43.9 µM (inactive)	> 100 µM (inactive)	> 100 µM (inactive)	> 100 µM (inactive)	> 100 µM (inactive)	> 100 µM (inactive)	57.8 µM (inactive)	50.4 µM (inactive)	> 100 µM (inactive)	> 100 µM (inactive)	67 µM (inactive)	45.6 µM (inactive)

— ChEMBL document CHEMBL1201862, “PubChem BioAssay data set” (2004)
